Measured values published in paper PMC3159548 (Biochemical pharmacology, 2011).
Several values for one entry are separate records, joined by “and”; a condition that tells them apart may be missing. Equal entries are not always repeated. Structures can show the parent of a compound that is named as a salt. Where two headings read alike, the source gives them in different places. Values belong to the molecule of their own block, whether it stands above or below them.

Columns and labels:
CYP2C8.1 [1] = molecular target: T1, CYP2C8.1 (Homo sapiens, UniProt P10632); settings: for Clint: kcat/Km
T1 sequence (P10632 1-490): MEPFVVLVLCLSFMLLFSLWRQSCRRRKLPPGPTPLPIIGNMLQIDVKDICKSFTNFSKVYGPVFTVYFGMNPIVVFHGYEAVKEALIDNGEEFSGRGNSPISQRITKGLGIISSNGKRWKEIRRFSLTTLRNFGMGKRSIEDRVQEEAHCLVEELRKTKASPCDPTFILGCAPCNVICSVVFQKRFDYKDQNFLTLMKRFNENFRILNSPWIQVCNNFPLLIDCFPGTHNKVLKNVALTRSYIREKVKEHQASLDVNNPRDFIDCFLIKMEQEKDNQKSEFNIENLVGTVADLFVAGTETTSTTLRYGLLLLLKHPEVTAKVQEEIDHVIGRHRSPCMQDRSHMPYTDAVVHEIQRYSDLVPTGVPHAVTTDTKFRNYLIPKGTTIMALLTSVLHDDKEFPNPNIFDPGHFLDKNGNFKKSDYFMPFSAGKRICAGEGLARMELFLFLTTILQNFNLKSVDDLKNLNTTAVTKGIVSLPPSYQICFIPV

CYP2C8.3 [2] = molecular target: T2, CYP2C8.3 (Homo sapiens, UniProt P10632, K399R/R139K)
T2 sequence (P10632 1-490 R139K/K399R): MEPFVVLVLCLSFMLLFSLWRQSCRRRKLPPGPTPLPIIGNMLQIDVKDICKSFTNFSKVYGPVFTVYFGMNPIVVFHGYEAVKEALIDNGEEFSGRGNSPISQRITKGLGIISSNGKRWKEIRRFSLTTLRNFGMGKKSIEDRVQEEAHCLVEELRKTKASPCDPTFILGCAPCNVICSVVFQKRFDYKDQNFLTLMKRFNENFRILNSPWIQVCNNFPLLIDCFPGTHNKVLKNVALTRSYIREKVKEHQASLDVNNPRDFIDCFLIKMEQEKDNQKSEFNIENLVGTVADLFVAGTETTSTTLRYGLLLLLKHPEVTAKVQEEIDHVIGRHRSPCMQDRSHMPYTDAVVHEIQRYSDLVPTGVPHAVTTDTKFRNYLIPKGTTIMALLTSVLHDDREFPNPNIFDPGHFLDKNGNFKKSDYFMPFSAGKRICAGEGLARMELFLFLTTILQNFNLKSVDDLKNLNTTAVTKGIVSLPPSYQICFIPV

CYP2C8.3 [3] = molecular target: T2, CYP2C8.3; settings: for Clint: kcat/Km
CYP2C8.3 [4] = molecular target: T2, CYP2C8.3; test: Equilibrium spectral binding of ligands and redox cofactors to purified CYP2C8.3; settings: for % change in Bmax, first binding event / % change in Bmax, second binding event / % change in Bmax, redox partner binding: CYP2C8.3 in comparison to CYP2C8.1; for Kd: read-out: KD of redox partner, spectral binding of redox partner to CYP2C8.3
CYP2C8 = settings: excess of cytochrome b5 (up to 10:1)
[5] = molecular target: T3, P450 reductase - CYP2C8.3 complex (Homo sapiens, UniProt P10632, K399R/R139K); settings: probe reaction of each substrate
T3 sequence (P10632 1-490 R139K/K399R): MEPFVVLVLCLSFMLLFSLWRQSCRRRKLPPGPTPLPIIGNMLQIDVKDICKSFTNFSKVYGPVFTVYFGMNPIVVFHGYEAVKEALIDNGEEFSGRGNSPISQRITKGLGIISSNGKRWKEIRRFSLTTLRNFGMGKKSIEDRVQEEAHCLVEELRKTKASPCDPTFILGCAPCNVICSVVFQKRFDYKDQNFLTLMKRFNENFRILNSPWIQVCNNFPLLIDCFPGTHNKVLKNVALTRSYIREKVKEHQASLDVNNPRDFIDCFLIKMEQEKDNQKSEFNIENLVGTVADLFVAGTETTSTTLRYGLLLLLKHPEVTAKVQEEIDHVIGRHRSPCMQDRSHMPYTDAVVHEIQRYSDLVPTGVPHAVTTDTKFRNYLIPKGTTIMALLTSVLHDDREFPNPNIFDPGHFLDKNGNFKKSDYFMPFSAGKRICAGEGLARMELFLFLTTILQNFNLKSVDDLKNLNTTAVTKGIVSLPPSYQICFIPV

CYP2C8.3 [6] = molecular target: T2, CYP2C8.3; settings: ref [8], cited from earlier work; for Clint: kcat/Km
CYP2C8.1 [7] = molecular target: T1, CYP2C8.1; settings: ref [8], cited from earlier work; for Clint: kcat/Km
CYP2C8.3 [8] = molecular target: T2, CYP2C8.3; settings: absence of cytochrome b5 in the reconstitution system; CPR:CYP2C8 2:1
CYP2C8.1 [9] = molecular target: T1, CYP2C8.1; test: Equilibrium spectral binding of ligands and redox cofactors to purified CYP2C8.1; settings: read-out: KD of redox partner; spectral binding of redox partner to CYP2C8.1
[10] = substrate: CC(=O)O[C@H]1C(=O)[C@@]2(C)[C@H]([C@H](OC(=O)c3ccccc3)[C@]3(O)C[C@H](OC(=O)[C@H](O)[C@@H](NC(=O)c4ccccc4)c4ccccc4)C(C)=C1C3(C)C)[C@]1(OC(C)=O)CO[C@@H]1C[C@@H]2O
[11] = substrate: CCN(CC)Cc1cc(Nc2ccnc3cc(Cl)ccc23)ccc1O
[12] = substrate: CN(CCOc1ccc(CC2SC(=O)NC2=O)cc1)c1ccccn1
[13] = substrate: CCN(CC)Cc1cc(Nc2ccnc3cc(Cl)ccc23)ccc1O; remark: listed apart in the source
[14] = substrate: CN(CCOc1ccc(CC2SC(=O)NC2=O)cc1)c1ccccn1; remark: listed apart in the source
[15] = CER hydroxylation (M23 formation)

- Clint (CYP2C8.1 [1]; RG N-de-methylation): 0.13 µM⁻¹ min⁻¹
- Clint (CYP2C8.1 [1]; RG p-hydroxylation): 0.11 µM⁻¹ min⁻¹
- Ki (CYP2C8.3 [2]): 150000 nM
- Clint (CYP2C8.3 [3]; RG N-de-methylation): 0.33 µM⁻¹ min⁻¹
- Clint (CYP2C8.3 [3]; RG p-hydroxylation): 0.29 µM⁻¹ min⁻¹
Molecule: CN(CCOc1ccc(CC2SC(=O)NC2=O)cc1)c1ccccn1 (centres unmarked) [RG, rosiglitazone]

- % change in Bmax, first binding event (CYP2C8.3 [4]): +45%
- % change in Bmax, second binding event (CYP2C8.3 [4]): +533%
- inhibition of CYP-activity by cytochrome b5 (CYP2C8): less evident
- decrease of Km, red of CYP2C8.3 in comparison to CYP2C8.1 [5]: did not vary
Molecule: COCc1c(C(C)C)nc(C(C)C)c(/C=C/[C@@H](O)C[C@@H](O)CC(=O)O)c1-c1ccc(F)cc1 [CER, (3R,5S,6E)-7-[4-(4-Fluorophenyl)-5-(methoxymethyl)-2,6-bis(1-methylethyl)-3-pyridinyl]-3,5-dihydroxy-6-heptenoic Acid Sodium Salt]
- Clint (CYP2C8.3 [6]; CER O-demethylation): 0.11 µM⁻¹ min⁻¹
- Km (CYP2C8.3 [6]; CER O-demethylation): 13 ± 2 µM
- kcat (CYP2C8.3 [6]; CER O-demethylation): 1.47 ± 0.06 (**) nmol nmol P450^−1 min^−1
- Km (CYP2C8.3 [6]; [15]): 13 ± 2 µM
- kcat (CYP2C8.3 [6]; [15]): 0.61 ± 0.03 (**) nmol nmol P450^−1 min^−1
- Clint (CYP2C8.3 [6]; CER hydroxylation): 0.047 µM⁻¹ min⁻¹
- Clint (CYP2C8.1 [7]; CER O-demethylation): 0.024 µM⁻¹ min⁻¹
- Km (CYP2C8.1 [7]; CER O-demethylation): 24 ± 3 µM
- kcat (CYP2C8.1 [7]; CER O-demethylation): 0.57 ± 0.02 nmol nmol P450^−1 min^−1
- Km (CYP2C8.1 [7]; [15]): 23 ± 2 µM
- kcat (CYP2C8.1 [7]; [15]): 0.22 ± 0.01 nmol nmol P450^−1 min^−1
- Clint (CYP2C8.1 [7]; CER hydroxylation): 0.0096 µM⁻¹ min⁻¹

- % change in Bmax, first binding event (CYP2C8.3 [4]): +79%
- % change in Bmax, second binding event (CYP2C8.3 [4]): −14%
- substrate inhibition (CYP2C8.1 [1]; CYP2C8.1): negligible
- activity of CYP2C8.3 compared to CYP2C8.1 (CYP2C8.3 [8]): less active
- Ki (CYP2C8.3 [2]): 103000 nM
- inhibition of CYP-activity by cytochrome b5 (CYP2C8): strong inhibition
- decrease of Km, red of CYP2C8.3 in comparison to CYP2C8.1 [5]: ~7 fold
- fold higher Clint (kcat/Km) for CYP2C8.3 compared to CYP2C8.1 (CYP2C8.3 [3]; DEAQ formation, p-hydroxy and N-de-methyl RG, PAC 6α-hydroxylation): 1.5 fold
- Clint (CYP2C8.3 [3]; PAC 6α-hydroxylation): 0.16 µM⁻¹ min⁻¹
Molecule: CC(=O)O[C@H]1C(=O)[C@@]2(C)[C@H]([C@H](OC(=O)c3ccccc3)[C@]3(O)C[C@H](OC(=O)[C@H](O)[C@@H](NC(=O)c4ccccc4)c4ccccc4)C(C)=C1C3(C)C)[C@]1(OC(C)=O)CO[C@@H]1C[C@@H]2O [PAC, paclitaxel]

B1: Cytochrome b5: expressed cytochrome b5; redox partner of CYP2C8 (protein, UniProt P00167 2-134, looked up)
Cytochrome b5: AEQSDEAVKYYTLEEIQKHNHSKSTWLILHHKVYDLTKFLEEHPGGEEVLREQAGGDATENFEDVGHSTDAREMSKTFIIGELHPDDRPKLNKPPETLITTIDSSSSWWTNWVIPAISAVAVALMYRLYMAED
- % change in Bmax, redox partner binding (CYP2C8.3 [4]): +298%
- Kd (CYP2C8.3 [4]): 16.8 ± 0.3 nM
- Kd (CYP2C8.1 [9]): 34.4 ± 0.4 nM

B2: CPR: Rat cytochrome P450 reductase, expressed; redox partner of CYP2C8 (protein, UniProt P00388 2-678, looked up)
NADPH--cytochrome P450 …: GDSHEDTSATMPEAVAEEVSLFSTTDMVLFSLIVGVLTYWFIFRKKKEEIPEFSKIQTTAPPVKESSFVEKMKKTGRNIIVFYGSQTGTAEEFANRLSKDAHRYGMRGMSADPEEYDLADLSSLPEIDKSLVVFCMATYGEGDPTDNAQDFYDWLQETDVDLTGVKFAVFGLGNKTYEHFNAMGKYVDQRLEQLGAQRIFELGLGDDDGNLEEDFITWREQFWPAVCEFFGVEATGEESSIRQYELVVHEDMDVAKVYTGEMGRLKSYENQKPPFDAKNPFLAAVTANRKLNQGTERHLMHLELDISDSKIRYESGDHVAVYPANDSALVNQIGEILGADLDVIMSLNNLDEESNKKHPFPCPTTYRTALTYYLDITNPPRTNVLYELAQYASEPSEQEHLHKMASSSGEGKELYLSWVVEARRHILAILQDYPSLRPPIDHLCELLPRLQARYYSIASSSKVHPNSVHICAVAVEYEAKSGRVNKGVATSWLRAKEPAGENGGRALVPMFVRKSQFRLPFKSTTPVIMVGPGTGIAPFMGFIQERAWLREQGKEVGETLLYYGCRRSDEDYLYREELARFHKDGALTQLNVAFSREQAHKVYVQHLLKRDREHLWKLIHEGGAHIYVCGDARNMAKDVQNTFYDIVAEFGPMEHTQAVDYVKKLMTKGRYSLDVWS
- % change in Bmax, redox partner binding (CYP2C8.3 [4]): +76%
- Kd (CYP2C8.3 [4]): 20.7 ± 0.2 nM
- Kd (CYP2C8.1 [9]): 29.4 ± 0.2 nM

B3: CYP2C8.1 (Homo sapiens) (protein)
chain: MEPFVVLVLCLSFMLLFSLWRQSCRRRKLPPGPTPLPIIGNMLQIDVKDICKSFTNFSKVYGPVFTVYFGMNPIVVFHGYEAVKEALIDNGEEFSGRGNSPISQRITKGLGIISSNGKRWKEIRRFSLTTLRNFGMGKRSIEDRVQEEAHCLVEELRKTKASPCDPTFILGCAPCNVICSVVFQKRFDYKDQNFLTLMKRFNENFRILNSPWIQVCNNFPLLIDCFPGTHNKVLKNVALTRSYIREKVKEHQASLDVNNPRDFIDCFLIKMEQEKDNQKSEFNIENLVGTVADLFVAGTETTSTTLRYGLLLLLKHPEVTAKVQEEIDHVIGRHRSPCMQDRSHMPYTDAVVHEIQRYSDLVPTGVPHAVTTDTKFRNYLIPKGTTIMALLTSVLHDDKEFPNPNIFDPGHFLDKNGNFKKSDYFMPFSAGKRICAGEGLARMELFLFLTTILQNFNLKSVDDLKNLNTTAVTKGIVSLPPSYQICFIPV
- Km [10]: 3.7 ± 0.6 µM
- kcat [10]: 0.00483 s⁻¹
- kcat/Km [10]: 1830 M⁻¹ s⁻¹
- Km [11]: 3.0 ± 0.4 µM
- kcat [11]: 0.095 ± 0.00333 s⁻¹
- kcat/Km [11]: 31700 M⁻¹ s⁻¹
- Km [12]: 4.0 ± 0.8 µM and 2.9 ± 0.6 µM

B4: CYP2C8.3 (Homo sapiens; K399R/R139K) (protein)
chain: MEPFVVLVLCLSFMLLFSLWRQSCRRRKLPPGPTPLPIIGNMLQIDVKDICKSFTNFSKVYGPVFTVYFGMNPIVVFHGYEAVKEALIDNGEEFSGRGNSPISQRITKGLGIISSNGKRWKEIRRFSLTTLRNFGMGKKSIEDRVQEEAHCLVEELRKTKASPCDPTFILGCAPCNVICSVVFQKRFDYKDQNFLTLMKRFNENFRILNSPWIQVCNNFPLLIDCFPGTHNKVLKNVALTRSYIREKVKEHQASLDVNNPRDFIDCFLIKMEQEKDNQKSEFNIENLVGTVADLFVAGTETTSTTLRYGLLLLLKHPEVTAKVQEEIDHVIGRHRSPCMQDRSHMPYTDAVVHEIQRYSDLVPTGVPHAVTTDTKFRNYLIPKGTTIMALLTSVLHDDREFPNPNIFDPGHFLDKNGNFKKSDYFMPFSAGKRICAGEGLARMELFLFLTTILQNFNLKSVDDLKNLNTTAVTKGIVSLPPSYQICFIPV
- Km [10]: 4.7 ± 0.7 (−) µM
- kcat [10]: 0.0127 s⁻¹
- kcat/Km [10]: 2670 M⁻¹ s⁻¹
- Km [13]: 7.5 ± 0.5 µM
- kcat [13]: 0.497 ± 0.0117 s⁻¹
- kcat/Km [13]: 66700 M⁻¹ s⁻¹
- Km [14]: 10.2 ± 0.9 µM and 8.0 ± 0.6 µM
